According to patent publication US8435978B2, “Substituted sulfonamide compounds” (Gruenenthal GmbH, priority 2006, dated 2013):
Counter-ions that a name gives are not always drawn. Values belong to the molecule of their own block, whether it stands above or below them.

Key:
human B1R receptor = target: T1, human B1R receptor (Homo sapiens, UniProt P46663); assay: Functional study on the bradykinin receptor 1 (B1R), FLIPR Ca2+ assay, hB1R cells; type: cell-based; settings: CHO-K1, test substance 10 μM, agonist Lys-Des-Arg9-bradykinin 0.5 nM, % inhibition compared with the maximum achievable inhibition, read-out: B1R Antagonism, human [10 μM] % Inhibition
T1 construct: host or cells: CHO K1 cells (Chinese hamster ovary), stably transfected
T1 sequence (P46663 1-353): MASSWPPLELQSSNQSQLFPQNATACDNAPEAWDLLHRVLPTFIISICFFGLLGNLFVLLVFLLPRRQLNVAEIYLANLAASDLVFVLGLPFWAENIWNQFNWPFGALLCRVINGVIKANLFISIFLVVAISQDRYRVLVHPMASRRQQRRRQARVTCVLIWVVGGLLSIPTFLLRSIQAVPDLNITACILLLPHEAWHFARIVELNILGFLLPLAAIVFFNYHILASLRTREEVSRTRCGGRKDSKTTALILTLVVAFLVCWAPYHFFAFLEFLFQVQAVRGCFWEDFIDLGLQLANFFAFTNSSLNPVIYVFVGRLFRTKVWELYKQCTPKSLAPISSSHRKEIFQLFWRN
How it was run: (§1)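 CHO K1 cells stably expressing human or rat B1R were loaded with Fluo-4 and read on a FLIPR (ex 488/em 540 nm, peak fluorescence). Test compounds at 10 μM were added first, then after 10 min agonist: Lys-Des-Arg9-bradykinin 0.5 nM for hB1R, Des-Arg9-bradykinin 100 nM for rB1R; % inhibition versus maximum inhibition.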

B1R receptor of the rat = target: T2, B1R receptor of the rat (Rattus norvegicus, UniProt P97583); assay: Functional study on the bradykinin receptor 1 (B1R), FLIPR Ca2+ assay, rB1R cells; type: cell-based; settings: CHO-K1, test substance 10 μM, agonist Des-Arg9-bradykinin 100 nM, % inhibition compared with the maximum achievable inhibition, read-out: B1R Antagonism, rat [10 μM] % Inhibition
T2 construct: host or cells: CHO K1 cells (Chinese hamster ovary), stably transfected
T2 sequence (P97583 1-337): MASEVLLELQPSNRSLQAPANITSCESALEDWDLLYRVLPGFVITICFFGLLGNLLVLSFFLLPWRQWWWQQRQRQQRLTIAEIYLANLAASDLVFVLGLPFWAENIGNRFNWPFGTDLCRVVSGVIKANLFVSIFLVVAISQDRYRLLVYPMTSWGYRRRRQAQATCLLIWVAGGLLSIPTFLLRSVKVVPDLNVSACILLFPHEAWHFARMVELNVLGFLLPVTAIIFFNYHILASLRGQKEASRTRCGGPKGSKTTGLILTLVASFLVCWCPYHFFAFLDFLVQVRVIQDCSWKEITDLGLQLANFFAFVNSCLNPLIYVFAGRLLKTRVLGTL
How it was run: as §1

inhibition at 10 µM (human B1R receptor): 103%
inhibition at 10 µM (B1R receptor of the rat): 102%
SMILES: COc1cc(C)c(S(=O)(=O)N2CCCC2COCC(=O)N2CCC(N3CCCCC3)CC2)c(C)c1 (stereo not drawn) [Example 520, 1-(1,4′-bipiperidin-1′-yl)-2-((1-(4-methoxy-2,6-dimethylphenylsulfonyl)pyrrolidin-2-yl)methoxy)ethanone]

inhibition at 10 µM (human B1R receptor): 102%
inhibition at 10 µM (B1R receptor of the rat): 93.7%
SMILES: COc1cc(C)c(S(=O)(=O)N2Cc3ccccc3C[C@H]2COCC(=O)N2CCN(C3CCN(C)CC3)CC2)c(C)c1 [Example 127, (S)-2-((2-(4-methoxy-2,6-dimethylphenylsulfonyl)-1,2,3,4-tetrahydroisoquinolin-3-yl)methoxy)-1-(4-(1-methylpiperidin-4-yl)piperazin-1-yl)ethanone]

inhibition at 10 µM (human B1R receptor): 100%
inhibition at 10 µM (B1R receptor of the rat): 100%
SMILES: Cc1cc(Br)cc(C)c1S(=O)(=O)N1CCCCC1COCC(=O)N1CCN(C2CCN(C)CC2)CC1 (stereo not drawn) [Example 148, 2-((1-(4-bromo-2,6-dimethylphenylsulfonyl)piperidin-2-yl)methoxy)-1-(4-(1-methylpiperidin-4-yl)piperazin-1-yl)ethanone]

inhibition at 10 µM (human B1R receptor): 104%
inhibition at 10 µM (B1R receptor of the rat): 95.2%
SMILES: COc1cc(C)c(S(=O)(=O)N2CCCC2COCC(=O)N2CCC(N3CCN(C)CC3)CC2)c(C)c1 (stereo not drawn) [Example 267, 2-((1-(4-methoxy-2,6-dimethylphenylsulfonyl)pyrrolidin-2-yl)methoxy)-1-(4-(4-methylpiperazin-1-yl)piperidin-1-yl)ethanone]

inhibition at 10 µM (human B1R receptor): 104%
inhibition at 10 µM (B1R receptor of the rat): 99%
SMILES: COc1cc(C)c(S(=O)(=O)N2CCCC2COCC(=O)N2CCN(CCn3c(C)ccc3C)CC2)c(C)c1 (stereo not drawn) [Example 269, 1-(4-(2-(2,5-dimethyl-1H-pyrrol-1-yl)ethyl)piperazin-1-yl)-2-((1-(4-methoxy-2,6-dimethylphenylsulfonyl)pyrrolidin-2-yl)methoxy)ethanone]

inhibition at 10 µM (human B1R receptor): 105%
inhibition at 10 µM (B1R receptor of the rat): 98.4%
SMILES: COc1cc(C)c(S(=O)(=O)N2CCCC2COCC(=O)N2CCN(c3ccc(F)cc3)CC2)c(C)c1 (stereo not drawn) [Example 307, 1-(4-(4-fluorophenyl)piperazin-1-yl)-2-((1-(4-methoxy-2,6-dimethylphenylsulfonyl)pyrrolidin-2-yl)methoxy)ethanone]

inhibition at 10 µM (human B1R receptor): 92.8%
inhibition at 10 µM (B1R receptor of the rat): 98.6%
SMILES: COc1cc(C)c(S(=O)(=O)N2CCCC2COCC(=O)N2CCN(Cc3ccccc3F)CC2)c(C)c1 (stereo not drawn) [Example 444, 1-(4-(2-fluorobenzyl)piperazin-1-yl)-2-((1-(4-methoxy-2,6-dimethylphenylsulfonyl)pyrrolidin-2-yl)methoxy)ethanone]

inhibition at 10 µM (human B1R receptor): 102%
inhibition at 10 µM (B1R receptor of the rat): 88%
SMILES: COc1cc(C)c(S(=O)(=O)N2CCCCC2COCC(=O)N2CCN(C)CC2)c(C)c1 (stereo not drawn) [Example 242, 2-((1-(4-methoxy-2,6-dimethylphenylsulfonyl)piperidin-2-yl)methoxy)-1-(4-methylpiperazin-1-yl)ethanone]

The next lines start with the molecule.

SMILES: CN(C)CCN(Cc1ccccc1)C(=O)COCC1CCCCN1S(=O)(=O)c1c(Cl)cccc1Cl (stereo not drawn) [Example 489, N-benzyl-2-((1-(2,6-dichlorophenylsulfonyl)piperidin-2-yl)methoxy)-N-(2-(dimethylamino)ethyl)acetamide]
inhibition at 10 µM (human B1R receptor): 99.3%
inhibition at 10 µM (B1R receptor of the rat): 100%

SMILES: CN1CCC(N2CCN(C(=O)COCC3CCCCN3S(=O)(=O)c3cccc(Cl)c3Cl)CC2)CC1 (stereo not drawn) [Example 173, 2-((1-(2,3-dichlorophenylsulfonyl)piperidin-2-yl)methoxy)-1-(4-(1-methylpiperidin-4-yl)piperazin-1-yl)ethanone dihydrochloride]
inhibition at 10 µM (human B1R receptor): 101%
inhibition at 10 µM (B1R receptor of the rat): 101%

SMILES: COc1cc(C)c(S(=O)(=O)N2CCCC2COCC(=O)Nc2ccc(N3CCOCC3)c(Cl)c2)c(C)c1 (stereo not drawn) [Example 493, N-(3-chloro-4-morpholinophenyl)-2-((1-(4-methoxy-2,6-dimethylphenylsulfonyl)pyrrolidin-2-yl)methoxy)acetamide]
inhibition at 10 µM (human B1R receptor): 40.6%
inhibition at 10 µM (B1R receptor of the rat): 99.5%

SMILES: COc1cc(C)c(S(=O)(=O)N2CCCC2COCC(=O)N2CCN(Cc3cccc(C#N)c3)CC2)c(C)c1 (stereo not drawn) [Example 93, 3-((4-(2-((1-(4-methoxy-2,6-dimethylphenylsulfonyl)pyrrolidin-2-yl)methoxy)acetyl)-piperazin-1-yl)methyl)benzonitrile hydrochloride]
inhibition at 10 µM (human B1R receptor): 106%
inhibition at 10 µM (B1R receptor of the rat): 99.1%

SMILES: COc1cc(C)c(S(=O)(=O)N2CCCCC2COCC(=O)N2CCN(Cc3cnc(N(C)c4ccc(F)cc4)nc3)CC2)c(C)c1 (stereo not drawn) [Example 214, 1-(4-((2-((4-fluorophenyl)(methyl)amino)pyrimidin-5-yl)methyl)piperazin-1-yl)-2-((1-(4-methoxy-2,6-dimethylphenylsulfonyl)piperidin-2-yl)methoxy)ethanone]
inhibition at 10 µM (human B1R receptor): 101%
inhibition at 10 µM (B1R receptor of the rat): 102%

SMILES: CN(CCC1CCC(N(C)C)CC1)C(=O)COCC1CCc2ccccc2N1S(=O)(=O)c1ccc(Cl)c(Cl)c1 (stereo not drawn) [Example 213, 2-((1-(3,4-dichlorophenylsulfonyl)-1,2,3,4-tetrahydroquinolin-2-yl)methoxy)-N-(2-(4-(dimethylamino)cyclohexyl)ethyl)-N-methylacetamide]
inhibition at 10 µM (human B1R receptor): 59.7%
inhibition at 10 µM (B1R receptor of the rat): 94.5%

SMILES: COc1cc(C)c(S(=O)(=O)N2CCCCC2COCC(=O)N2CCN(CCN(C(C)C)C(C)C)CC2)c(C)c1 (stereo not drawn) [Example 341, 1-(4-(2-(diisopropylamino)ethyl)piperazin-1-yl)-2-((1-(4-methoxy-2,6-dimethylphenylsulfonyl)piperidin-2-yl)methoxy)ethanone]
inhibition at 10 µM (human B1R receptor): 105%
inhibition at 10 µM (B1R receptor of the rat): 102%

SMILES: COc1cc(C)c(S(=O)(=O)N2CCCCC2COCC(=O)N2CCC[C@H]2CN2CCCC2)c(C)c1 (stereo partly drawn) [Example 374, 2-((1-(4-methoxy-2,6-dimethylphenylsulfonyl)piperidin-2-yl)methoxy)-1-((S)-2-(pyrrolidin-1-ylmethyl)pyrrolidin-1-yl)ethanone]
inhibition at 10 µM (human B1R receptor): 80.8%
inhibition at 10 µM (B1R receptor of the rat): 102%

SMILES: COc1cc(OC)cc(N2CCN(C(=O)COCC3CCCCN3S(=O)(=O)c3c(C)cc(OC)cc3C)CC2)c1 (stereo not drawn) [Example 340, 1-(4-(3,5-dimethoxyphenyl)piperazin-1-yl)-2-((1-(4-methoxy-2,6-dimethylphenylsulfonyl)piperidin-2-yl)methoxy)ethanone]
inhibition at 10 µM (human B1R receptor): 105%
inhibition at 10 µM (B1R receptor of the rat): 101%

SMILES: O=C(COCC1CCCCN1S(=O)(=O)c1c(Cl)cccc1Cl)NCc1ccc(CN2CCOCC2)cc1 (stereo not drawn) [Example 549, 2-((1-(2,6-dichlorophenylsulfonyl)piperidin-2-yl)methoxy)-N-(4-(morpholinomethyl)benzyl)acetamide]
inhibition at 10 µM (human B1R receptor): 75.8%
inhibition at 10 µM (B1R receptor of the rat): 99%

SMILES: CN1CCC(N2CCN(C(=O)COCC3CCCCN3S(=O)(=O)c3c(Cl)cc(Cl)cc3Cl)CC2)CC1 (stereo not drawn) [Example 118, 1-(4-(1-methylpiperidin-4-yl)piperazin-1-yl)-2-((1-(2,4,6-trichlorophenylsulfonyl)piperidin-2-yl)methoxy)ethanone]
inhibition at 10 µM (human B1R receptor): 104%
inhibition at 10 µM (B1R receptor of the rat): 102%

SMILES: CN1CCC(N2CCN(C(=O)COCC3CCCCN3S(=O)(=O)c3cccc4cccnc34)CC2)CC1 (stereo not drawn) [Example 175, 1-(4-(1-methylpiperidin-4-yl)piperazin-1-yl)-2-((1-(quinolin-8-ylsulfonyl)piperidin-2-yl)methoxy)ethanone dihydrochloride]
inhibition at 10 µM (human B1R receptor): 103%
inhibition at 10 µM (B1R receptor of the rat): 86.3%

SMILES: COc1cc(C)c(S(=O)(=O)N2CCCCC2COCC(=O)NCCCn2ccnc2)c(C)c1 (stereo not drawn) [Example 366, N-(3-(1H-imidazol-1-yl)propyl)-2-((1-(4-methoxy-2,6-dimethylphenylsulfonyl)piperidin-2-yl)methoxy)acetamide]
inhibition at 10 µM (human B1R receptor): 14.8%
inhibition at 10 µM (B1R receptor of the rat): 99%

SMILES: COc1cc(C)c(S(=O)(=O)N2CCCC2COCC(=O)N2CCN(CC3CCCCC3)CC2)c(C)c1 (stereo not drawn) [Example 492, 1-(4-(cyclohexylmethyl)piperazin-1-yl)-2-((1-(4-methoxy-2,6-dimethylphenylsulfonyl)pyrrolidin-2-yl)methoxy)ethanone]
inhibition at 10 µM (human B1R receptor): 103%
inhibition at 10 µM (B1R receptor of the rat): 104%

SMILES: O=C(COCC1Cc2ccccc2CN1S(=O)(=O)c1ccc(Cl)cc1Cl)N1CCC(N2CCCCC2)CC1 (stereo not drawn) [Example 9, 1-(1,4′-bipiperidin-1′-yl)-2-((2-(2,4-dichlorophenylsulfonyl)-1,2,3,4-tetrahydro-isoquinolin-3-yl)methoxy)ethanone]
inhibition at 10 µM (human B1R receptor): 102%
inhibition at 10 µM (B1R receptor of the rat): 85.3%

SMILES: COc1cccc(N2CCN(C(=O)COCC3CCCN3S(=O)(=O)c3c(Cl)cccc3Cl)CC2)c1 (stereo not drawn) [Example 324, 2-((1-(2,6-dichlorophenylsulfonyl)pyrrolidin-2-yl)methoxy)-1-(4-(3-methoxyphenyl)piperazin-1-yl)ethanone]
inhibition at 10 µM (human B1R receptor): 84%
inhibition at 10 µM (B1R receptor of the rat): 98.4%
